Where two headings read alike, the source gives them in different places.
Experiments:
[1] = molecular target: panel of 255 wild-type kinases (Homo sapiens, UniProt P45983); experiment: Kinase panel profiling at 1 µmol/L (MSA or IMAP), percentage inhibition; type: biochemical; settings: kinase JNK1; 1 µmol/L single concentration; read-out: %-inhibition at 1 µmol/L, JNK1
[2] = molecular target: T1, panel of 255 wild-type kinases (Homo sapiens, UniProt Q8IW41); experiment: as above; type: biochemical; settings: MAPKAPK5; 1 µmol/L single concentration; read-out: %-inhibition, MAPKAPK5
T1 sequence (Q8IW41 1-473): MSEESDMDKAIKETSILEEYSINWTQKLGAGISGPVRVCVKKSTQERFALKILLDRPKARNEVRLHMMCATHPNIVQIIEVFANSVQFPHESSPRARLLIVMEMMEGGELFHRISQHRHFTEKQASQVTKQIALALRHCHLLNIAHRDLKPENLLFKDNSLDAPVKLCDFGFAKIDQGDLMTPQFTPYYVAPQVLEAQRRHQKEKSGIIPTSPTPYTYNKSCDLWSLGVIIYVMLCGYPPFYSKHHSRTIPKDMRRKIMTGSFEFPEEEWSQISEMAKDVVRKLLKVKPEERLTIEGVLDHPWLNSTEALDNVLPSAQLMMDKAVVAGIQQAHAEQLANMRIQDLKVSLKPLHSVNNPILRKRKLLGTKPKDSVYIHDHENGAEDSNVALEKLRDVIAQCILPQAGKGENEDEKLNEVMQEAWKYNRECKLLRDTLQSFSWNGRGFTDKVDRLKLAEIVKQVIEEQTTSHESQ

AP-1060 (ETV6-NTRK3) = experiment: Cell viability assay; settings: read-out: IC50 in cell proliferation assay
134 cancer cell lines = experiment: Cell viability assay (ATPlite, 72 hours), IC50 on cancer cell line panel

`CCc1nc(C(N)=O)c(Nc2ccc(N3CCC(N4CCN(C)CC4)CC3)c(OC)c2)nc1NC1CCOCC1` [gilteritinib] gave an inhibition at 1 µM [1] of 29%, an inhibition at 1 µM [2] of -0.923% and an IC50 (AP-1060 (ETV6-NTRK3)) of 417 nM. The IC50 (134 cancer cell lines; HEC-6, read-out: IC50 in cell proliferation assay, HEC-6 cell line (EGFR p.A289V)) was 1430 nM, the IC50 (134 cancer cell lines; Homo sapiens, 769-P, read-out: IC50 in cell proliferation assay, cell line 769-P) was 1150 nM and the IC50 (134 cancer cell lines; Homo sapiens, 786-0, read-out: IC50 in cell proliferation assay, cell line 786-O) was 947 nM. The IC50 (134 cancer cell lines; Homo sapiens, A 172, read-out: IC50 in cell proliferation assay, cell line A-172) was 1630 nM, the IC50 (134 cancer cell lines; Homo sapiens, A204, read-out: IC50 in cell proliferation assay, cell line A-204) was 392 nM and the IC50 (134 cancer cell lines; Homo sapiens, A498, read-out: IC50 in cell proliferation assay, cell line A-498) was 552 nM. The IC50 (134 cancer cell lines; Homo sapiens, A549, read-out: IC50 in cell proliferation assay, cell line A-549) was 630 nM, the IC50 (134 cancer cell lines; Homo sapiens, A704, read-out: IC50 in cell proliferation assay, cell line A-704) was 962 nM and the IC50 (134 cancer cell lines; Homo sapiens, A-375, read-out: IC50 in cell proliferation assay, cell line A-375 (BRAF p.V600E)) was 400 nM. It also gave an IC50 (134 cancer cell lines; Homo sapiens, A-427, read-out: IC50 in cell proliferation assay, cell line A-427) of 248 nM, an IC50 (134 cancer cell lines; Homo sapiens, ACHN, read-out: IC50 in cell proliferation assay, cell line ACHN) of 294 nM and an IC50 (134 cancer cell lines; Homo sapiens, AN3-CA, read-out: IC50 in cell proliferation assay, cell line AN3-CA (FGFR2 p.N549K)) of 1220 nM. It also gave an IC50 (134 cancer cell lines; Homo sapiens, ASPC1, read-out: IC50 in cell proliferation assay, cell line AsPC-1) of 545 nM, an IC50 (134 cancer cell lines; Homo sapiens, AU565, read-out: IC50 in cell proliferation assay, cell line AU565 (ERBB2 amplification)) of 1310 nM and an IC50 (134 cancer cell lines; Homo sapiens, BT-20, read-out: IC50 in cell proliferation assay, cell line BT-20) of 4220 nM. It also gave an IC50 (134 cancer cell lines; Homo sapiens, BT-474, read-out: IC50 in cell proliferation assay, cell line BT-474 (ERBB2 amplification)) of 13900 nM, an IC50 (134 cancer cell lines; Homo sapiens, BT-549, read-out: IC50 in cell proliferation assay, cell line BT-549) of 469 nM and an IC50 (134 cancer cell lines; Homo sapiens, BXPC-3, read-out: IC50 in cell proliferation assay, cell line BxPC-3) of 409 nM. It also gave an IC50 (134 cancer cell lines; Homo sapiens, C-33-A, read-out: IC50 in cell proliferation assay, cell line C-33 A) of 344 nM, an IC50 (134 cancer cell lines; Homo sapiens, CAL-27, read-out: IC50 in cell proliferation assay, cell line CAL-27) of 366 nM and an IC50 (134 cancer cell lines; Homo sapiens, CCF-STTG1, read-out: IC50 in cell proliferation assay, cell line CCF-STTG1) of 4060 nM. It also gave an IC50 (134 cancer cell lines; Homo sapiens, CCRF-CEM, read-out: IC50 in cell proliferation assay, cell line CCRF-CEM) of 1690 nM, an IC50 (134 cancer cell lines; Homo sapiens, COLO 205, read-out: IC50 in cell proliferation assay, cell line COLO 205 (BRAF p.V600E)) of 1060 nM and an IC50 (134 cancer cell lines; Homo sapiens, COLO-829, read-out: IC50 in cell proliferation assay, cell line COLO 829 (BRAF p.V600E)) of 1220 nM. It also gave an IC50 (134 cancer cell lines; Homo sapiens, DLD-1, read-out: IC50 in cell proliferation assay, cell line DLD-1) of 746 nM, an IC50 (134 cancer cell lines; Homo sapiens, DU-4475, read-out: IC50 in cell proliferation assay, cell line DU4475 (BRAF p.V600E)) of 1440 nM and an IC50 (134 cancer cell lines; Homo sapiens, Daoy, read-out: IC50 in cell proliferation assay, cell line Daoy) of 3210 nM. The IC50 (134 cancer cell lines; Homo sapiens, DoTc2-4510, read-out: IC50 in cell proliferation assay, cell line DoTc2 4510) was 318 nM, the IC50 (134 cancer cell lines; Homo sapiens, EOL1, read-out: IC50 in cell proliferation assay, cell line EoL-1 (FIP1L1-PDGFRA)) was 33 nM and the IC50 (134 cancer cell lines; Homo sapiens, FaDu, read-out: IC50 in cell proliferation assay, cell line FaDu) was 459 nM. For the same compound, the IC50 (134 cancer cell lines; Homo sapiens, G-361, read-out: IC50 in cell proliferation assay, cell line G-361 (BRAF p.V600E)) was 328 nM, the IC50 (134 cancer cell lines; Homo sapiens, HCC827, read-out: IC50 in cell proliferation assay, cell line HCC827 (EGFR exon19del)) was 223 nM and the IC50 (134 cancer cell lines; Homo sapiens, HCC4006, read-out: IC50 in cell proliferation assay, cell line HCC4006 (EGFR exon19del)) was 540 nM. The IC50 (134 cancer cell lines; Homo sapiens, HCT-15, read-out: IC50 in cell proliferation assay, cell line HCT 15) was 829 nM, the IC50 (134 cancer cell lines; Homo sapiens, HCT-116, read-out: IC50 in cell proliferation assay, cell line HCT 116) was 418 nM and the IC50 (134 cancer cell lines; Homo sapiens, HEC-1, read-out: IC50 in cell proliferation assay, HEC-1 cell line) was 462 nM. For the same compound, the IC50 (134 cancer cell lines; Homo sapiens, HEC-1B, read-out: IC50 in cell proliferation assay, HEC-1-B cell line (EGFR p.A864V)) was 270 nM, the IC50 (134 cancer cell lines; Homo sapiens, HL-60, read-out: IC50 in cell proliferation assay, HL-60 cell line) was 438 nM and the IC50 (134 cancer cell lines; Homo sapiens, HT, read-out: IC50 in cell proliferation assay, HT cell line) was 3410 nM. For the same compound, the IC50 (134 cancer cell lines; Homo sapiens, HT-1080, read-out: IC50 in cell proliferation assay, HT-1080 cell line) was 202 nM, the IC50 (134 cancer cell lines; Homo sapiens, Hs746T, read-out: IC50 in cell proliferation assay, Hs 746.T cell line (MET exon14skip + amplification)) was 512 nM and the IC50 (134 cancer cell lines; Homo sapiens, Hs-578T, read-out: IC50 in cell proliferation assay, Hs 578T cell line) was 1190 nM. For the same compound, the IC50 (134 cancer cell lines; Homo sapiens, HuTu80, read-out: IC50 in cell proliferation assay, HuTu 80 cell line) was 509 nM, the IC50 (134 cancer cell lines; Homo sapiens, J82, read-out: IC50 in cell proliferation assay, J82 cell line) was 372 nM and the IC50 (134 cancer cell lines; Homo sapiens, Jurkat E6.1, read-out: IC50 in cell proliferation assay, Jurkat E6.1 cell line) was 749 nM. For the same compound, the IC50 (134 cancer cell lines; Homo sapiens, K562, read-out: IC50 in cell proliferation assay, K-562 cell line) was 1540 nM, the IC50 (134 cancer cell lines; Homo sapiens, KATO III, read-out: IC50 in cell proliferation assay, KATO III cell line (FGFR2 amplification)) was 718 nM and the IC50 (134 cancer cell lines; Homo sapiens, KG-1, read-out: IC50 in cell proliferation assay, KG-1 cell line (FGFR1OP2-FGFR1)) was 392 nM. The IC50 (134 cancer cell lines; Homo sapiens, KLE, read-out: IC50 in cell proliferation assay, KLE cell line) was 317 nM, the IC50 (134 cancer cell lines; Homo sapiens, KMS-11, read-out: IC50 in cell proliferation assay, KMS-11 cell line (FGFR3 p.Y373C)) was 912 nM and the IC50 (134 cancer cell lines; Homo sapiens, KU812, read-out: IC50 in cell proliferation assay, Ku812 cell line) was 1510 nM. It also gave an IC50 (134 cancer cell lines; Homo sapiens, Kasumi 1, read-out: IC50 in cell proliferation assay, Kasumi-1 cell line (KIT p.N822K)) of 219 nM, an IC50 (134 cancer cell lines; Homo sapiens, LC-2-ad, read-out: IC50 in cell proliferation assay, LC-2/ad cell line (CCDC6-RET)) of 158 nM and an IC50 (134 cancer cell lines; Homo sapiens, LNCaP-Clone-FGC, read-out: IC50 in cell proliferation assay, LNCaP clone FGC cell line) of 6820 nM. It also gave an IC50 (134 cancer cell lines; Homo sapiens, LS174T, read-out: IC50 in cell proliferation assay, LS174T cell line) of 652 nM, an IC50 (134 cancer cell lines; Homo sapiens, LS-411N, read-out: IC50 in cell proliferation assay, LS411N cell line (BRAF p.V600E)) of 1150 nM and an IC50 (134 cancer cell lines; Homo sapiens, LoVo, read-out: IC50 in cell proliferation assay, LoVo cell line) of 413 nM. For the same compound, the IC50 (134 cancer cell lines; Homo sapiens, MCF7, read-out: IC50 in cell proliferation assay, MCF-7 cell line) was 514 nM, the IC50 (134 cancer cell lines; Homo sapiens, MDA-MB-231, read-out: IC50 in cell proliferation assay, MDA-MB-231 cell line) was 1500 nM and the IC50 (134 cancer cell lines; Homo sapiens, MDA-MB-453, read-out: IC50 in cell proliferation assay, MDA-MB-453 cell line) was 8820 nM. For the same compound, the IC50 (134 cancer cell lines; Homo sapiens, MDA-MB-468, read-out: IC50 in cell proliferation assay, MDA-MB-468 cell line) was 4890 nM, the IC50 (134 cancer cell lines; Homo sapiens, MG-63, read-out: IC50 in cell proliferation assay, MG-63 cell line) was 377 nM and the IC50 (134 cancer cell lines; Homo sapiens, MIA PaCa-2, read-out: IC50 in cell proliferation assay, MIA PaCa-2 cell line) was 340 nM. For the same compound, the IC50 (134 cancer cell lines; Homo sapiens, MKN-45, read-out: IC50 in cell proliferation assay, MKN45 cell line (MET amplification)) was 1480 nM.
